{"source": "paper PMC7827406", "about": "“Structure–Activity Relationship (SAR) Study of Spautin-1 to Entail the Discovery of Novel NEK4 Inhibitors” (International Journal of Molecular Sciences, 2021)", "test_in_all_cases": "biochemical", "set-up_in_all_cases": "Eurofins KinaseProfiler full panel at Km ATP, residual kinase activity (%) relative to DMSO", "key": {"[1]": {"molecular_target": "CDK14/cyclinY(h) (Homo sapiens, UniProt O94921)", "sequence (O94921 whole entry)": "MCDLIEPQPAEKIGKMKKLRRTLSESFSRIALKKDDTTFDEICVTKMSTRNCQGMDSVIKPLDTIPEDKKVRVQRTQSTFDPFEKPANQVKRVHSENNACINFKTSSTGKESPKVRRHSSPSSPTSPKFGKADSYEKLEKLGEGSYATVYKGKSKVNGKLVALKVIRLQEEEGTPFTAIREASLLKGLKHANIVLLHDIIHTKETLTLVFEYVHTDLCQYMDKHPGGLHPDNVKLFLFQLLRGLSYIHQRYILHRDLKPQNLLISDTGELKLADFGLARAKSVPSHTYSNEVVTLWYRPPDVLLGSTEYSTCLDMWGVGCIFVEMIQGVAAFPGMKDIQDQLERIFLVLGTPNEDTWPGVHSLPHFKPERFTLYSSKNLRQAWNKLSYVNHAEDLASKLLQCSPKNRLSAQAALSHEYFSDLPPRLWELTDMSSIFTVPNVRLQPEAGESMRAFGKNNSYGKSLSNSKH", "sequence (Q8ND76 whole entry partner)": "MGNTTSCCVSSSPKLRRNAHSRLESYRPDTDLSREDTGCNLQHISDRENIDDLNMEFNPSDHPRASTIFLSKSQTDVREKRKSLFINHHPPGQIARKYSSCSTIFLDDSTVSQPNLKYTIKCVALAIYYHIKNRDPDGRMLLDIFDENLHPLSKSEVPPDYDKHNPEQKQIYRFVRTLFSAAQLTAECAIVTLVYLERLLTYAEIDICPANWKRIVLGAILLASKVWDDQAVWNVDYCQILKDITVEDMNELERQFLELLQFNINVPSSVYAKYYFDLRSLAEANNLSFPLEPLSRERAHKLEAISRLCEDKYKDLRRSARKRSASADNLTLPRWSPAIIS", "procedure": "(§1) Eurofins performed a “Full KP Panel [Km ATP], KinaseProfile” which contains 429 radiometric kinase activity assays. The remaining kinase activity (%) was determined after treatment with the compounds at a concentration of 10 µM (Cfr. supporting information). Since we could not confirm the interaction between Spautin-1 analogues and USP13, a kinase screening was performed using a set of four compounds (Spautin-1 and three analogues) to discover off-targets and identify kinases that are potentially responsible for the reduction in cell viability observed in our screen (Table 2). The KINOMEscan from Eurofins was performed (see Table S1). This screen consists of a competitive binding assay in which the DNA-tagged kinase is incubated with one of the compounds in the presence of immobilized active site binding ligands. Binding of the compounds to the kinase hampers the binding of the kinase to the ligands and this inhibition was quantified by qPCR. The residual kinase activity, which represents the percentage of kinase attached to the immobilized ligands, was determined for 428 kinases at a standard screening concentration of 10 µM of the compounds dissolved in DMSO [61]."}, "[2]": {"molecular_target": "CSK(h) (Homo sapiens, UniProt P41240)", "sequence (P41240 whole entry)": "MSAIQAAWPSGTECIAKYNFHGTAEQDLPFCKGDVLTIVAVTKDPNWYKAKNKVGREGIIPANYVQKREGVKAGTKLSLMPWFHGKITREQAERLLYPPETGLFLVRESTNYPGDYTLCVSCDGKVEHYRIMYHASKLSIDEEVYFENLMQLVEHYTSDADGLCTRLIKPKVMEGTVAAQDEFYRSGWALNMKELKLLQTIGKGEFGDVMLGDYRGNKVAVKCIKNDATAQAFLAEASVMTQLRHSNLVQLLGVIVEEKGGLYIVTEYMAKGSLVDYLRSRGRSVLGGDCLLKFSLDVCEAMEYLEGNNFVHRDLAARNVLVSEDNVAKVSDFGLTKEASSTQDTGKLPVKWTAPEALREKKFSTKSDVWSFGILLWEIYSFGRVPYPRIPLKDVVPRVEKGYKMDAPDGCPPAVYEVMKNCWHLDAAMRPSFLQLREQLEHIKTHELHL", "procedure": "as §1"}, "[3]": {"molecular_target": "T1, NEK2(h) (Homo sapiens, UniProt P51955)", "T1 sequence (P51955 1-445)": "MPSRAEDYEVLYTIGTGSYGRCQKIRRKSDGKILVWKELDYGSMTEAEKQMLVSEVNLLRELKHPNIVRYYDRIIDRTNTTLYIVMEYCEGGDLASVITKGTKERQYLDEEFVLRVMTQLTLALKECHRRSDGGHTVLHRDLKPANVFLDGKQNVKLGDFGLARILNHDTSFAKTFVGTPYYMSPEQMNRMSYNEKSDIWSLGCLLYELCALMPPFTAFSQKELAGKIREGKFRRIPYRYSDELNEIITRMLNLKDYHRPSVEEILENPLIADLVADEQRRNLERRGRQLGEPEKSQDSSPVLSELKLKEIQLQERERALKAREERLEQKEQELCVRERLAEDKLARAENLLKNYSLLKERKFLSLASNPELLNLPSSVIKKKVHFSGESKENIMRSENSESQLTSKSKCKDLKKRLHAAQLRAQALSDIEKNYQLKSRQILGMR", "procedure": "as §1"}, "[4]": {"molecular_target": "T2, NEK9(h) (Homo sapiens, UniProt Q8TD19)", "T2 sequence (Q8TD19 1-979)": "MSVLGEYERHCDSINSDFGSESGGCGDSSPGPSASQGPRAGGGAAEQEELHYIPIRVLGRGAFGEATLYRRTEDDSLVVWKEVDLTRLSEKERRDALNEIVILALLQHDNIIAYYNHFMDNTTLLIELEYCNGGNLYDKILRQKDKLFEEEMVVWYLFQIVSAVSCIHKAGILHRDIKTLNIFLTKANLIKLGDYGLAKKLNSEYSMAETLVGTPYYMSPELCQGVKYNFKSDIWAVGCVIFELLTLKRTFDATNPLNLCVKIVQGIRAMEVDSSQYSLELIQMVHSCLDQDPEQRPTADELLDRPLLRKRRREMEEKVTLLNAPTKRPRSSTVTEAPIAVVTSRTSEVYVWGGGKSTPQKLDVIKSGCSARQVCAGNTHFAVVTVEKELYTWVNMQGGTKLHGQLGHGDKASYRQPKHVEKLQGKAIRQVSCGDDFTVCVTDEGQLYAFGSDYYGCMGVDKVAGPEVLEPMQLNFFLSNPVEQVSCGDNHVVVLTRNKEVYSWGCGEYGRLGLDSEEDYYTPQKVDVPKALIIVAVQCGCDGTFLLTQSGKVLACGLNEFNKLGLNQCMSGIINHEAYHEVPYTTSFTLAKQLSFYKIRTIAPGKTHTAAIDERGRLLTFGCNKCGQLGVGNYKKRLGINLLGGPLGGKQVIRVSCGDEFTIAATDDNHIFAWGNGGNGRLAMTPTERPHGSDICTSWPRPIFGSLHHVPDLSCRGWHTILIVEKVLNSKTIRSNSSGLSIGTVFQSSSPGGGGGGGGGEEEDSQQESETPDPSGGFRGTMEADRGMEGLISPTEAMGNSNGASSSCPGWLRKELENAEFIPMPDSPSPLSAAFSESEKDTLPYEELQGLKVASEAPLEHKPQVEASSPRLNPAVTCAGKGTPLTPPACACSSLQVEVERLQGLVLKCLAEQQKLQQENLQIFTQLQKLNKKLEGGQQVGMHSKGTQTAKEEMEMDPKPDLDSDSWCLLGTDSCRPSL", "procedure": "as §1"}, "[5]": {"molecular_target": "T3, PRAK(h) (Homo sapiens, UniProt Q8IW41)", "T3 construct": "gene MAPKAPK5", "T3 sequence (Q8IW41 1-473)": "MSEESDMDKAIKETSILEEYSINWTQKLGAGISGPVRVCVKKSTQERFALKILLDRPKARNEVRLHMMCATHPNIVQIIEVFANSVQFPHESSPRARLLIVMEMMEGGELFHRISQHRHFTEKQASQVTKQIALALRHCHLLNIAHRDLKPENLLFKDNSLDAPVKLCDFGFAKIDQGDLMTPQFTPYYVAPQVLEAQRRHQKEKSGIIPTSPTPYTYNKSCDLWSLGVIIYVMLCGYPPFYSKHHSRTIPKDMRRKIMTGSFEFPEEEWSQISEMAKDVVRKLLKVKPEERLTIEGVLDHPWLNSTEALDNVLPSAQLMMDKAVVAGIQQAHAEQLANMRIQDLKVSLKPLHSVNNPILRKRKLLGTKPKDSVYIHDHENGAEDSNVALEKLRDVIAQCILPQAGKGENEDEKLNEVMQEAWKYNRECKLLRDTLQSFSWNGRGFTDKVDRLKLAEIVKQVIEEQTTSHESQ", "procedure": "as §1"}, "[6]": {"molecular_target": "Ret(V804M)(h) (Homo sapiens, UniProt P07949, V804M)", "sequence (P07949 whole entry V804M)": "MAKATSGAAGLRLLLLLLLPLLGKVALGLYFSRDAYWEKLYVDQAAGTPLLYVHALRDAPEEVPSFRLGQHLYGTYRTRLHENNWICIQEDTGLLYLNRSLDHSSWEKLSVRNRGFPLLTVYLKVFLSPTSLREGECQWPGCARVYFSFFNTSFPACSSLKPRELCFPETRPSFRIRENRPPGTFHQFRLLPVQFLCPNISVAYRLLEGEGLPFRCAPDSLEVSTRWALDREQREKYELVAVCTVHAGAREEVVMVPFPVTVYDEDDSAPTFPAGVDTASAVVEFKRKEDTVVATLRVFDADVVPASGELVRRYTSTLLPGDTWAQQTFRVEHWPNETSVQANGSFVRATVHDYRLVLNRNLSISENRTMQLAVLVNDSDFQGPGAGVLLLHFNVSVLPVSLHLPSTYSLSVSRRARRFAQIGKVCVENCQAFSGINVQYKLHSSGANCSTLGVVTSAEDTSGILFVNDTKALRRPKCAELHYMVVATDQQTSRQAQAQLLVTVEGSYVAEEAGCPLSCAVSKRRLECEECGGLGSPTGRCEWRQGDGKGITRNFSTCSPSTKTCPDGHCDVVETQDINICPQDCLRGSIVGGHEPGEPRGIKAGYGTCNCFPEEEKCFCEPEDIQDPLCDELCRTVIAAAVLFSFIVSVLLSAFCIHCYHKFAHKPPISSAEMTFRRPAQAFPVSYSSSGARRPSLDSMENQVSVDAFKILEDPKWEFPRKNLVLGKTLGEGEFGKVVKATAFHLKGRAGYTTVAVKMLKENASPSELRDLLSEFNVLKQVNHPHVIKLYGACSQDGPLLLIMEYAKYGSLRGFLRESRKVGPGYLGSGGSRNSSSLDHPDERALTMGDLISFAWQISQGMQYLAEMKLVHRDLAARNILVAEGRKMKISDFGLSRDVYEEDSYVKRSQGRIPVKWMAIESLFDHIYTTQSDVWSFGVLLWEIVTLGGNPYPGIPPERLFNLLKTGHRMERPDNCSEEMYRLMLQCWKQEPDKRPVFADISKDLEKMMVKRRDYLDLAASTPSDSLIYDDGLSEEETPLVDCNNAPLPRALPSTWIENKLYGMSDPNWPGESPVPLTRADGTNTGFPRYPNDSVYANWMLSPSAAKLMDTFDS", "procedure": "as §1"}, "[7]": {"molecular_target": "VRK2(h) (Homo sapiens, UniProt Q86Y07)", "sequence (Q86Y07 whole entry)": "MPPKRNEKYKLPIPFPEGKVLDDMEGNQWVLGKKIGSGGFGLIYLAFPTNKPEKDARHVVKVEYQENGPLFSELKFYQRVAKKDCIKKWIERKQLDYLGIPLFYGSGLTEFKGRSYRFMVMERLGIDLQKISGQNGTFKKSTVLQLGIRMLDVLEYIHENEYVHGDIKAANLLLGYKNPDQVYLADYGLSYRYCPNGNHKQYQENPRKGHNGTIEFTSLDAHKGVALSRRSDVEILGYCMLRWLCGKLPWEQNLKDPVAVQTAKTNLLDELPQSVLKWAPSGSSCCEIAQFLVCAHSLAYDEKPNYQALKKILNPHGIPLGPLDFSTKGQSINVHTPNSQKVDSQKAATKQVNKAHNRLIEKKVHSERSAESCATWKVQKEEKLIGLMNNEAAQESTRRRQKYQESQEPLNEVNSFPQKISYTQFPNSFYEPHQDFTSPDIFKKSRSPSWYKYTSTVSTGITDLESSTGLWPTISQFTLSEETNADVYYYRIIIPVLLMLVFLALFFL", "procedure": "as §1"}, "[8]": {"conditions": "read-out: Residual activity (%) 5at"}, "[9]": {"conditions": "read-out: Residual activity (%) 5as"}, "[10]": {"conditions": "read-out: Residual activity (%) 5ay"}, "[11]": {"conditions": "read-out: Residual activity (%) Spautin-1 5aa"}}, "note": "Read-outs that look alike come from different tables or passages of the source.", "data": [{"smiles": "Fc1ccc2ncnc(NCCc3ccc(Cl)cc3)c2c1", "note": "[5at, N-[2-(4-Chlorophenyl)Ethyl]-6-Fluoro-4-Quinazolinamine]", "values": [{"measurement": "remaining activity at 10 µM", "setting": "[1]; [8]", "value": 109, "unit": "%"}, {"measurement": "remaining activity at 10 µM", "setting": "[2]; [8]", "value": 79, "unit": "%"}, {"measurement": "remaining activity at 10 µM", "setting": "[3]; [8]", "value": 95, "unit": "%"}, {"measurement": "remaining activity at 10 µM", "setting": "[4]; [8]", "value": 92, "unit": "%"}, {"measurement": "remaining activity at 10 µM", "setting": "[5]; [8]", "value": 91, "unit": "%"}, {"measurement": "remaining activity at 10 µM", "setting": "[6]; [8]", "value": 73, "unit": "%"}, {"measurement": "remaining activity at 10 µM", "setting": "[7]; [8]", "value": 94, "unit": "%"}]}, {"smiles": "Fc1ccc(CCNc2ncnc3ccc(F)cc23)cc1", "note": "[5as, 6-Fluoro-N-[2-(4-Fluorophenyl)Ethyl]-4-Quinazolinamine]", "values": [{"measurement": "remaining activity at 10 µM", "setting": "[1]; [9]", "value": 103, "unit": "%"}, {"measurement": "remaining activity at 10 µM", "setting": "[2]; [9]", "value": 85, "unit": "%"}, {"measurement": "remaining activity at 10 µM", "setting": "[3]; [9]", "value": 88, "unit": "%"}, {"measurement": "remaining activity at 10 µM", "setting": "[4]; [9]", "value": 103, "unit": "%"}, {"measurement": "remaining activity at 10 µM", "setting": "[5]; [9]", "value": 108, "unit": "%"}, {"measurement": "remaining activity at 10 µM", "setting": "[6]; [9]", "value": 85, "unit": "%"}, {"measurement": "remaining activity at 10 µM", "setting": "[7]; [9]", "value": 99, "unit": "%"}]}, {"smiles": "COc1ccc2ncnc(Nc3cccc(F)c3)c2c1", "note": "[5ay, N-(3-Fluorophenyl)-6-Methoxy-4-Quinazolinamine]", "values": [{"measurement": "remaining activity at 10 µM", "setting": "[1]; [10]", "value": 93, "unit": "%"}, {"measurement": "remaining activity at 10 µM", "setting": "[2]; [10]", "value": 91, "unit": "%"}, {"measurement": "remaining activity at 10 µM", "setting": "[3]; [10]", "value": 92, "unit": "%"}, {"measurement": "remaining activity at 10 µM", "setting": "[4]; [10]", "value": 92, "unit": "%"}, {"measurement": "remaining activity at 10 µM", "setting": "[5]; [10]", "value": 102, "unit": "%"}, {"measurement": "remaining activity at 10 µM", "setting": "[6]; [10]", "value": 102, "unit": "%"}, {"measurement": "remaining activity at 10 µM", "setting": "[7]; [10]", "value": 88, "unit": "%"}]}, {"smiles": "Fc1ccc(CNc2ncnc3ccc(F)cc23)cc1", "note": "[5aa, 6-Fluoro-N-(4-fluorobenzyl)-4-Quinazolinamine]", "values": [{"measurement": "remaining activity at 10 µM", "setting": "[1]; [11]", "value": 107, "unit": "%"}, {"measurement": "remaining activity at 10 µM", "setting": "[2]; [11]", "value": 82, "unit": "%"}, {"measurement": "remaining activity at 10 µM", "setting": "[3]; [11]", "value": 91, "unit": "%"}, {"measurement": "remaining activity at 10 µM", "setting": "[4]; [11]", "value": 98, "unit": "%"}, {"measurement": "remaining activity at 10 µM", "setting": "[5]; [11]", "value": 107, "unit": "%"}, {"measurement": "remaining activity at 10 µM", "setting": "[6]; [11]", "value": 99, "unit": "%"}, {"measurement": "remaining activity at 10 µM", "setting": "[7]; [11]", "value": 91, "unit": "%"}]}]}
